The results in this text go back to patent publication US10966962B2, “Method for treating neurodegenerative diseases” (THE BOARD OF TRUSTEES OF THE LELAND STANFORD JUNIOR …, priority 2014, dated 2021).

This experiment relates to brain perivascular macrophages. As to the kind of experiment: 2-NBDG glucose uptake in brain perivascular macrophages of ALS transgenic animals. It counts as in vivo, mice. The settings on record: 25 mg/kg orally 3 times a week for 8 weeks, 13 weeks of age. Here is the method: ALS transgenic animals were orally treated 3 times a week for 8 weeks with 0.5% methylcellulose or ZLN005 (Sigma) at 25 mg/kg in 0.5% methylcellulose, starting at 5 weeks of age. For measuring brain perivascular macrophages, ALS-Ctrl (n=8), ALS-ZLN (n=8), and WT animal (n=12) were sacrificed at 13 weeks of age. PBS-perfused brain tissues of sacrificed animals were digested with Collagenase IV and processed for flow cytometry. Brain perivascular macrophages were stained with 2-NBDG, the fluorescent glucose analog, to measure glucose uptake for flow cytometric acquisition (LSRII, BD) and analysis (FlowJo). The results are summarized in FIG. 20; Y-axis represents % of brain perivascular macrophages that have taken up the glucose analog, 2-NBDG. […] ANOVA was used for statistical analysis.

Take `CC(C)(C)c1ccc(-c2nc3ccccc3[nH]2)cc1` [ZLN005, 2-(4-tert-butylphenyl)-1H-benzimidazole]: the “glucose uptake (2-NBDG) in brain perivascular macrophages” value is “decreased”.
